Experimental findings from ChEMBL document CHEMBL4152235, “Synthesis, anionophoric activity and apoptosis-inducing bioactivity of benzimidazolyl-based transmembrane anion transporters” (Eur J Med Chem, 2018) are described below.

Assay [1] relates to MCF7. The assay is described as follows: Cytotoxicity against human MCF7 cells assessed as reduction in cell viability at 50 uM after 48 hrs by MTT assay relative to control. The settings on record: MCF7, 48 h. The class given is functional. A general note: Tetrazolium assays rely on reduction of a dye to a coloured formazan, in cell work by metabolically active cells.
In assay [2] the test system is A549. The assay is described as follows: Cytotoxicity against human A549 cells assessed as reduction in cell viability at 50 uM after 48 hrs by MTT assay relative to control. The class given is functional. The settings on record: A549, 48 h.
Assay [3] deals with HeLa. The assay is described as follows: Cytotoxicity against human HeLa cells assessed as reduction in cell viability at 50 uM after 48 hrs by MTT assay relative to control. The class given is functional.
Assay [4] relates to HepG2. The assay is described as follows: Cytotoxicity against human HepG2 cells assessed as reduction in cell viability at 50 uM after 48 hrs by MTT assay relative to control. The class given is functional. The settings on record: HepG2, 48 h.
Assay [5] is described as follows: Ionophoric activity across pyranine dye encapsulated pH 7 egg yolk L-alpha-phosphatidylcholine-based liposomal membranes assessed as chloride ion transport by measuring induction of pH discharge after 20 mins in presence of NaCl loaded external vesicles by fluorescence method relative to m-Bimbe.
Assay [6] can be described thus: Binding affinity to chloride ion at 1.5 x 10^-5M using tetra(n-butyl)ammonium chloride measured after 2 mins by spectrophotometric titration method.
Assay [7] can be described thus: Ionophoric activity across pyranine dye encapsulated pH 7 egg yolk L-alpha-phosphatidylcholine-based liposomal membranes assessed as chloride ion transport by measuring induction of pH discharge after 20 mins in presence of NaCl loaded external vesicles by fluorescence method.
Assay [8] relates to HeLa. Put plainly: Ionophoric activity across human HeLa cells assessed as chloride ion efflux at 10 uM after 3 hrs by acridine orange staining based fluorescence microscopic analysis. The class given is cell-based.
The subject of assay [9] is HepG2. The assay is described as follows: Cytotoxicity against human HepG2 cells assessed as reduction in cell viability after 48 hrs by MTT assay. The following applies: HepG2, 48 h. The class given is functional, cell-based.
In assay [10] the test system is A549. The assay is described as follows: Cytotoxicity against human A549 cells assessed as reduction in cell viability after 48 hrs by MTT assay. The class given is functional, cell-based. The settings on record: A549, 48 h.
The subject of assay [11] is L02. The assay is described as follows: Cytotoxicity against human LO2 cells assessed as reduction in cell viability after 48 hrs by MTT assay. The class given is cell-based. The following applies: L02, 48 h.
The subject of assay [12] is MCF7. The assay is described as follows: Cytotoxicity against human MCF7 cells assessed as reduction in cell viability after 48 hrs by MTT assay. The class given is functional, cell-based. The settings on record: MCF7, 48 h.
Assay [13] can be described thus: Binding affinity to chloride ion assessed as 1:1 compound-Cl- complex formation at 4.1 mM using tetra(n-butyl)ammonium chloride by ESI MS spectrometric method.
Assay [14] has as its system MCF7. Put plainly: Ionophoric activity across human MCF7 cells assessed as chloride ion efflux up to 10 uM after 2 hrs by MQAE dye based fluorescence assay. The class given is cell-based.
Assay [15] relates to HeLa. Put plainly: Ionophoric activity across human HeLa cells assessed as chloride ion efflux up to 10 uM after 2 hrs by MQAE dye based fluorescence assay. The class given is cell-based.
The test system of assay [16] is HeLa. Put plainly: Cytotoxicity against human HeLa cells assessed as reduction in cell viability after 48 hrs by MTT assay. The class given is functional, cell-based.
Assay [17] can be described thus: Binding affinity to chloride ion at 1.5 x 10^-5M using tetra(n-butyl)ammonium chloride measured after 5 mins by spectrophotometric titration method.
Assay [18] in a line: Ionophoric activity across pyranine dye encapsulated pH 7 egg yolk L-alpha-phosphatidylcholine-based liposomal membranes assessed as chloride ion transport by measuring initial rate constant for induction of pH discharge at 7.81 x 10^-3 mol% after 20 mins in presence of NaCl loaded external vesicles by fluorescence method (reference value: 5.03 +/- 1.02 10^-3/min).
The nature of assay [19]: Ionophoric activity across pyranine dye encapsulated pH 7 egg yolk L-alpha-phosphatidylcholine-based liposomal membranes assessed as chloride ion transport by measuring initial rate constant for induction of pH discharge at 1.56 x 10^-2 mol% after 20 mins in presence of NaCl loaded external vesicles by fluorescence method (reference value: 5.03 +/- 1.02 10^-3/min).
A short description of assay [20]: Ionophoric activity across pyranine dye encapsulated pH 7 egg yolk L-alpha-phosphatidylcholine-based liposomal membranes assessed as chloride ion transport by measuring initial rate constant for induction of pH discharge at 3.13 x 10^-2 mol% after 20 mins in presence of NaCl loaded external vesicles by fluorescence method (reference value: 5.03 +/- 1.02 10^-3/min).

Assay [21] can be described thus: Ionophoric activity across pyranine dye encapsulated pH 7 egg yolk L-alpha-phosphatidylcholine-based liposomal membranes assessed as chloride ion transport by measuring initial rate constant for induction of pH discharge at 6.25 x 10^-2 mol% after 20 mins in presence of NaCl loaded external vesicles by fluorescence method (reference value: 5.03 +/- 1.02 10^-3/min).

The nature of assay [22]: Ionophoric activity across pyranine dye encapsulated pH 7 egg yolk L-alpha-phosphatidylcholine-based liposomal membranes assessed as chloride ion transport by measuring initial rate constant for induction of pH discharge at 2.50 x 10^-1 mol% after 20 mins in presence of NaCl loaded external vesicles by fluorescence method (reference value: 5.03 +/- 1.02 10^-3/min).
Assay [23] can be described thus: Ionophoric activity across pyranine dye encapsulated pH 7 egg yolk L-alpha-phosphatidylcholine-based liposomal membranes assessed as chloride ion transport by measuring initial rate constant for induction of pH discharge at 1.25 x 10^-1 mol% after 20 mins in presence of NaCl loaded external vesicles by fluorescence method (reference value: 5.03 +/- 1.02 10^-3/min).

Active and inactive are the calls of the source. The calls are words filed in the database; no cut-off is given here.

One may read the inhibition as the change of the read-out against control, counted positive when it falls. `c1ccc(-c2nc3ccccc3[nH]2)c(-c2nc3ccccc3[nH]2)c1`: the inhibition at 50 µM was 11.6% in assay [1], -6% in [2], 24.9% in assay [3] and 3.6% in [4].

For `O=[N+]([O-])c1ccc2nc(-c3cccc(-c4nc5ccc([N+](=O)[O-])cc5[nH]4)c3)[nH]c2c1`, the fold change (FC) in [5] came out at 790. Moreover, the inhibition at 50 µM in assay [1] is 47.4%; in assay [2], 52.1%; in assay [3], 59.2%; in assay [4] it was 15.4%. In [6], the Ka was determined as 2.22 ×10³ /M. Further, the EC50 in assay [7] worked out at 8.19 ×10⁻³ mol%; in [7] (read-out: EC50) it was 0.11 µM.

The term IC50 denotes the point on the concentration scale where inhibition reaches its midpoint. On to `c1cc(-c2nc3ccccc3[nH]2)cc(-c2nc3ccccc3[nH]2)c1`, for which the outcome in [8], in [13], in [14] and in [15] was Active. Further, the IC50 was 20.6 µM in assay [9]; 38.5 µM in [10]; 19.9 µM in [11]; > 100 µM in assay [12]; 8.5 µM in [16]. For the same compound, the inhibition at 50 µM in assay [1] was determined as 31.9%; in assay [2] it was 91.1%; in assay [3], 96.5%; in assay [4], 69.5%. The compound further displayed a Ka in assay [6] of 2.48 ×10³ /M. In addition, the EC50 in assay [7] is 6.47 mol%; in [7] (read-out: EC50) it was 85.8 µM.

Regarding `Brc1ccc2nc(-c3cccc(-c4nc5ccc(Br)cc5[nH]4)c3)[nH]c2c1`, the concentration for half-maximal inhibition (IC50) in [9] was 12.1 µM; in [10], 21.9 µM; in [11] it was 17.8 µM; in [12], 9.7 µM; in assay [16], 21.1 µM. Also, the inhibition at 50 µM in assay [1] worked out at 93.5%; in assay [2], 92.6%; in assay [3], 98%; in assay [4] it was 93.1%.

With `FC(F)(F)c1ccc2nc(-c3cccc(-c4nc5ccc(C(F)(F)F)cc5[nH]4)c3)[nH]c2c1`, the result in [8], in assay [14] and in [15] was Active. In addition, the IC50 in assay [9] amounted to 6.6 µM; in [10], 8.9 µM; in assay [11] it was 10.9 µM; in assay [12], 12.8 µM; in assay [16] it was 8 µM. The fold change (FC) in [5] was found to be 67. For the same compound, the inhibition at 50 µM in [1] was found to be 98.8%; in assay [2], 99.3%; in assay [3] it was 100%; in assay [4] it was 100%. The same compound registered a Ka in assay [6] of 4.52 ×10³ /M. In addition, the EC50 in [7] was 9.59 ×10⁻² mol%; in [7] (read-out: EC50), 1.27 µM.

`Cn1c(-c2cccc(-c3nc4ccccc4n3C)c2)nc2ccccc21`: the inhibition at 50 µM in assay [1] is 23.3%; in [2], 22.2%; in [3] it was 43.2%; in assay [4], 49.1%.

On to `Clc1ccc2nc(-c3cccc(-c4nc5ccc(Cl)cc5[nH]4)c3)[nH]c2c1`, for which the 50% inhibitory concentration (IC50) is 9.1 µM in assay [9]; 23.7 µM in assay [10]; 13.7 µM in assay [11]; 25.9 µM in assay [12]; 10.7 µM in assay [16]. Besides, the inhibition at 50 µM in assay [1] came out at 90.5%; in [2], 82.4%; in assay [3], 95.6%; in [4], 98.4%.

For the compound `c1ccc(-c2nc3ccccc3[nH]2)cc1`, the inhibition at 50 µM is 25.5% in [1], 1.2% in [2], 8.1% in assay [3] and 11.6% in assay [4].

Take `Fc1ccc2nc(-c3cccc(-c4nc5ccc(F)cc5[nH]4)c3)[nH]c2c1`: the IC50 in assay [9] is 17.3 to 17.4 µM; in assay [10], > 100 µM; in assay [11] it was 20.8 µM; in assay [12] it was > 100 µM; in assay [16] it was 11.6 µM. Further, the inhibition at 50 µM in [1] stood at 26.4%; in assay [2] it was 33.6%; in assay [3] it was 83.5%; in assay [4], 78.9%.

In the case of `COc1cccc2c1C(=O)c1c(O)c3c(c(O)c1C2=O)C[C@@](O)(C(=O)CO)C[C@@H]3O[C@H]1C[C@H](N)[C@H](O)[C@H](C)O1` [DOXORUBICIN], the IC50 in assay [9] was determined as 2.1 µM; in assay [10], 0.6 µM; in assay [11], 0.11 µM; in assay [12], 0.8 µM; in [16], 0.5 µM.

As for `COc1cc(-c2nc3ccc([N+](=O)[O-])cc3[nH]2)cc(-c2nc3ccc([N+](=O)[O-])cc3[nH]2)c1`, the IC50 in assay [9] turned out to be 8.9 µM; in assay [10], 18.5 µM; in assay [11], 26.3 µM; in [12] it was 17.1 µM; in [16], 1 µM. Also, the Ka in assay [17] was 1.56 ×10³ /M. The fold change (FC) in assay [5] came to 20. Moreover, in assay [13], the outcome was Active. The inhibition at 50 µM in assay [1] is 96.3%; in assay [2] it was 67.7%; in assay [3] it was 85.3%; in assay [4] it was 96.7%. Further, in assay [7], the Activity entry was “Dose-dependent effect”. The EC50 came to 0.32 mol% in assay [7] and 4.24 µM in assay [7] (read-out: EC50).

On to `c1ccc2[nH]c(-c3ccc(-c4nc5ccccc5[nH]4)cc3)nc2c1`, for which the inhibition at 50 µM in [1] turned out to be 63.3%; in assay [2], 53.1%; in [3], 59.6%; in assay [4], 17.4%.

For the compound `COc1cc(-c2nc3ccc(C(F)(F)F)cc3[nH]2)cc(-c2nc3ccc(C(F)(F)F)cc3[nH]2)c1`, the result in assay [8], in assay [13], in assay [14] and in assay [15] was Active. Moreover, the IC50 was found to be 10.7 µM in [9]; 8.1 µM in assay [10]; 10.1 µM in assay [11]; 11.9 µM in assay [12]; 8.4 µM in assay [16]. The K in assay [18] came to 3.23 ×10⁻² /min; in [19] it was 4.33 ×10⁻² /min; in [20], 6.31 ×10⁻² /min; in [21], 8.52 ×10⁻² /min; in assay [22] it was 1.47 ×10⁻¹ /min; in assay [23], 1.16 ×10⁻¹ /min. For the same compound, the Ka in assay [17] was found to be 3.53 ×10³ /M. In assay [5], the fold change (FC) turned out to be 43. Moreover, the inhibition at 50 µM in [1] worked out at 98.9%; in assay [2], 100%; in [3], 91.8%; in assay [4], 101%. Moreover, the Activity entry in assay [7] is “Dose-dependent effect”. The EC50 in assay [7] was found to be 0.15 mol%; in assay [7] (read-out: EC50), 1.99 µM.
